The text below walks through data of patent US20250195530A1, “POLQ INHIBITORS” (ASTRAZENECA AB, priority 2022, published 2025).

The subject of this assay is DLD-1 BRCA2−/− cells. As to the kind of experiment: Homologous recombination synthetic lethal inhibition of proliferation, DLD-1 BRCA2-/- (Cell Titre Glo 3D). It counts as cell-based. The following applies: for IC50: Homo sapiens. From the text: This assay identifies anti-proliferative effects of POLQ compounds in the homologous recombination deficient colorectal cell line DLD-1 BRCA2−/− over 8-9 population doublings (7 days for DLD-1 and 12 days for DLD-1 BRCA2−/−). DLD1 BRCA2 wt are used as a control to detect cell toxic effects not specific to homologous recombination deficiency.
DLD-1 BRCA2−/− and DLD-1 cells were kept in continuous culture in Assay Medium (RPMI 1640 phenol red free (Sigma R7509) containing 1% GlutaMAX (Gibco 35050) and 10% Foetal Bovine Serum (Gibco 10270-106)). On the day of the assay cells in culture of ˜80-90% confluent were used. Cell monolayers were washed with 10 mL PBS, then removed and added 2 mL TrypLE Express (Gibco 12604). The cells with TrypLE Express were incubated for 5 minutes in cell culture incubator and then the detached cells resuspend in 15 mL Assay Medium. Cells were counted using a ViCell and the cell images were monitored for clumps of cells, ideally they should be single or <3 cell clusters. The cells were diluted to 3,000 cells/mL of DLD-1 BRCA2−/− and 1,500 cells/mL of DLD-1 in Assay Medium and 100 μL added per well of transparent bottomed, black, tissue culture-treated 96-well plates (CoStar, No. 3904) Assay Ready Plates. The Assay Ready Plates contain a 10 point 10 μM to 0.51 nM dose range with three-fold dilutions in DMSO with a final volume of 100 nL. The plates were incubated at 37° C. with 5% C02 for 6 days. On day 6, 100 μL/well of Assay Medium was added to duplicate Assay Ready Plates. 90 μL of culture medium was removed from the cell plates and replenished with the Assay Media and compounds from the duplicate Assay Ready Plates using the Bravo. The plates were further incubated at 37° C. with 5% CO2. On day 7 the plates containing DLD-1 and Cell Titre Glo 3D (Promega G9683) were equilibrated to room temperature, then 60 μL of Cell Titre Glo 3D was added per well and incubated on a shaking platform for 30 min. Plates were read on the Envision measuring luminescence for 1 second per well. On day 12 the plates containing DLD-1 BRCA2−/− cells and Cell Titre Glo 3D (Promega G9683) were equilibrated to room temperature, then 60 μL Cell Titre Glo 3D added per well and incubated on a shaking platform for 30 min. Plates were read on the Envision measuring luminescence for 1 second per well. The data was exported into a suitable software package (such as Genedata) to perform curve fitting analysis. Inhibition of cell proliferation was expressed as an IC5o value and was determined by calculation of the concentration of compound that was required to give a 50% reduction of the average maximum Total Intensity signal.

[1] abbreviates: DLD-1, first proliferation column (c5), DLD-1 BRCA2-/-, read-out: POLQ PD Prolif Lumin (converted).
Where [2] appears, read: DLD-1, DLD-1 BRCA2 −/− cells, mean, read-out: POLQ PD Prolif Lumin BRCA2 −/− mean pIC50 (converted).
[3] abbreviates: DLD-1, proliferation, luminescence, taken as DLD-1 BRCA2-/-, read-out: POLQ PD Prolif Lumin (converted).
Setting [4] is: DLD-1, DLD-1 BRCA2-/- proliferation, column head only partly shown, read-out: POLQ PD Prolif Lumin (converted).
[5] abbreviates: DLD-1, first proliferation column (c5), taken as DLD-1 BRCA2-/-, read-out: POLQ PD Prolif Lumin (converted).

Where two headings read alike, the source gives them in different places.

In the case of `CC(CCOc1ccc(-c2nc3c(OC4(C)CC4)ncnc3n2Cc2cccc(F)c2F)c(Cl)c1)C(=O)O` (single isomer, unassigned) [Example T262, 4-(3-chloro-4-(9-(2,3-difluorobenzyl)-6-(1-methylcyclopropoxy)-9H-purin-8-yl)phenoxy)-2-methylbutanoic acid], the “POLQ PD Prolif Lumin” value (DLD-1 BRCA2-/- proliferation, column head only partly shown) was 6.3. Regarding `Cc1ccnc(Cn2c(-c3ccc(N4CCNC(=O)C4)cc3Cl)nc3c(OC4(C)CC4)ncnc32)c1` [Example T201, 4-(3-chloro-4-(6-(1-methylcyclopropoxy)-9-((4-methylpyridin-2-yl)methyl)-9H-purin-8-yl)phenyl)piperazin-2-one], the IC50 under setting [1] was 501 nM. As for `CC1(Oc2ncnc3c2nc(-c2ccc(CC(N)=O)cc2Cl)n3Cc2ccc(C(F)(F)F)nc2)CC1` [Example T38, 2-(3-chloro-4-(6-(1-methylcyclopropoxy)-9-((6-(trifluoromethyl)pyridin-3-yl)methyl)-9H-purin-8-yl)phenyl)acetamide], under setting [2], the IC50 was 6310 nM. For `Cc1ccnc(Cn2c(-c3ccc(OCC(=O)N4CC[C@H](F)C4)cc3Cl)nc3c(OC4(C)CC4)ncnc32)c1` [Example T420, (S)-2-(3-chloro-4-(6-(1-methylcyclopropoxy)-9-((4-methylpyridin-2-yl)methyl)-9H-purin-8-yl)phenoxy)-1-(3-fluoropyrrolidin-1-yl)ethan-1-one], under setting [3], the IC50 was 251 nM.

For `Cc1ccnc(Cn2c(-c3ccc(C(=O)NCCCO)cc3Cl)nc3c(OC4(C)CC4)ncnc32)c1` [Example T217, 3-chloro-N-(3-hydroxypropyl)-4-(6-(1-methylcyclopropoxy)-9-((4-methylpyridin-2-yl)methyl)-9H-purin-8-yl)benzamide], under setting [4], the IC50 is 1000 nM. For `CC1(Oc2ncnc3c2nc(-c2ccc(OCCC(C)(C)C(=O)O)cc2Cl)n3Cc2ccccc2C#N)CC1` [Example U17, 4-(3-chloro-4-(9-(2-cyanobenzyl)-6-(1-methylcyclopropoxy)-9H-purin-8-yl)phenoxy)-2,2-dimethylbutanoic acid], for the setting “DLD-1, DLD-1 BRCA2 −/−, mean, read-out: POLQ PD Prolif Lumin BRCA2 −/− mean pIC50 (converted)”, the IC50 was 251 nM. Consider `C[C@H](COc1cccc(-c2nc3c(OC4(C)CC4)ncnc3n2Cc2cccc(Cl)c2)c1Cl)C(=O)O` [Example T159, (R)-3-(2-chloro-3-(9-(3-chlorobenzyl)-6-(1-methylcyclopropoxy)-9H-purin-8-yl)phenoxy)-2-methylpropanoic acid], for which the IC50 under setting [1] is 126 nM. The same measure, in the same setting: with `CC1(Oc2ncnc3c2nc(-c2ccc(OCCN4C[C@@H]5C[C@H]4CN5)cc2Cl)n3Cc2cc(Cl)ccn2)CC1` [Example T487, 8-(4-(2-((1S,4S)-2,5-diazabicyclo[2.2.1]heptan-2-yl)ethoxy)-2-chlorophenyl)-9-((4-chloropyridin-2-yl)methyl)-6-(1-methylcyclopropoxy)-9H-purine] the figure was 398 nM. With `CC(CCCOc1ccc(-c2nc3c(OC4(C)CC4)ncnc3n2Cc2cccc(Cl)c2)c(Cl)c1)C(=O)O` (single isomer, unassigned) [Example T438, 5-(3-chloro-4-(9-(3-chlorobenzyl)-6-(1-methylcyclopropoxy)-9H-purin-8-yl)phenoxy)-2-methylpentanoic acid], the IC50 under setting [3] is 126 nM. For the compound `CC[C@H](CO)NC(=O)c1ccc(-c2nc3c(OC4(C)CC4)ncnc3n2Cc2cc(C)ccn2)c(Cl)c1` [Example T361, (R)-3-chloro-N-(1-hydroxybutan-2-yl)-4-(6-(1-methylcyclopropoxy)-9-((4-methylpyridin-2-yl)methyl)-9H-purin-8-yl)benzamide], under setting [5], the IC50 is 631 nM. On to `Cc1ccnc(Cn2c(-c3ccc(CC(=O)NCC(F)F)cc3Cl)nc3c(OC4(C)CC4)ncnc32)c1` [Example T165, 2-(3-chloro-4-(6-(1-methylcyclopropoxy)-9-((4-methylpyridin-2-yl)methyl)-9H-purin-8-yl)phenyl)-N-(2,2-difluoroethyl)acetamide], for which, under setting [1], the IC50 is 100 nM.

For the compound `Cc1ccnc(Cn2c(-c3ccc(OCCNC(=O)CO)cc3Cl)nc3c(OC4(C)CC4)ncnc32)c1` [Example T227, N-(2-(3-chloro-4-(6-(1-methylcyclopropoxy)-9-((4-methylpyridin-2-yl)methyl)-9H-purin-8-yl)phenoxy)ethyl)-2-hydroxyacetamide], the IC50 under setting [4] is 316 nM. As to `Cc1ccnc(Cn2c(-c3ccc(OCC(=O)NC[C@H](C)O)cc3Cl)nc3c(OC4(C)CC4)ncnc32)c1` [Example T372, (S)-2-(3-chloro-4-(6-(1-methylcyclopropoxy)-9-((4-methylpyridin-2-yl)methyl)-9H-purin-8-yl)phenoxy)-N-(2-hydroxypropyl)acetamide], the IC50 under setting [5] is 398 nM.

Regarding `Cc1ccnc(Cn2c(-c3ccc(N4CCC5NCCC54)cc3Cl)nc3c(OC4(C)CC4)ncnc32)c1` (stereo not shown) [Example T492, 8-(2-chloro-4-(hexahydropyrrolo[3,2-b]pyrrol-1(2H)-yl)phenyl)-6-(1-methylcyclopropoxy)-9-((4-methylpyridin-2-yl)methyl)-9H-purine], under setting [1], the IC50 was 398 nM.

In the case of `CCC(C)c1ccc(-c2nc3c(OC4(C)CC4)ncnc3n2Cc2cc(C)ccn2)c(Cl)c1` (racemic) [Example T232, 8-(4-(sec-butyl)-2-chlorophenyl)-6-(1-methylcyclopropoxy)-9-((4-methylpyridin-2-yl)methyl)-9H-purine], the IC50 under setting [4] is > 1580 nM. As to `Cc1cnnc(Cn2c(-c3ccc(CC(N)=O)cc3Cl)nc3c(OC4(C)CC4)ncnc32)c1` [Example T18, 2-(3-chloro-4-(6-(1-methylcyclopropoxy)-9-((5-methylpyridazin-3-yl)methyl)-9H-purin-8-yl)phenyl)acetamide], the IC50 under setting [2] is > 10000 nM. As to `Cc1ccnc(Cn2c(-c3ccc(OCC(=O)N4CC(O)C4)cc3Cl)nc3c(OC4(C)CC4)ncnc32)c1` [Example T322, 2-(3-chloro-4-(6-(1-methylcyclopropoxy)-9-((4-methylpyridin-2-yl)methyl)-9H-purin-8-yl)phenoxy)-1-(3-hydroxyazetidin-1-yl)ethan-1-one], the IC50 under setting [5] is 631 nM.

For `COC(=O)Nc1ccc(-c2nc3c(OC4(C)CC4)ncnc3n2Cc2cc(C)ccn2)c(Cl)c1` [Example T62, methyl (3-chloro-4-(6-(1-methylcyclopropoxy)-9-((4-methylpyridin-2-yl)methyl)-9H-purin-8-yl)phenyl)carbamate], the IC50 under setting [2] was 251 nM. Consider `Cc1ccnc(Cn2c(-c3ccc(N4CCNCC4=O)cc3Cl)nc3c(OC4(C)CC4)ncnc32)c1` [Example T202, 1-(3-chloro-4-(6-(1-methylcyclopropoxy)-9-((4-methylpyridin-2-yl)methyl)-9H-purin-8-yl)phenyl)piperazin-2-one], for which the IC50 under setting [4] was 2510 nM. On to `CC1(Oc2ncnc3c2nc(-c2ccc(CC(N)=O)cc2Cl)n3Cc2ccc(F)cc2C#N)CC1` [Example T78, 2-(3-chloro-4-(9-(2-cyano-4-fluorobenzyl)-6-(1-methylcyclopropoxy)-9H-purin-8-yl)phenyl)acetamide], for which the IC50 under setting [2] is 5010 nM.

With `Cc1ccnc(Cn2c(-c3ccc(C(=O)NC4CC(O)C4)cc3Cl)nc3c(OC4(C)CC4)ncnc32)c1` (stereo not shown) [Example T319, 3-chloro-N-(3-hydroxycyclobutyl)-4-(6-(1-methylcyclopropoxy)-9-((4-methylpyridin-2-yl)methyl)-9H-purin-8-yl)benzamide], the IC50 under setting [5] is 2510 nM. `CC1(Oc2ncnc3c2nc(-c2ccc(NCCC(=O)O)cc2Cl)n3Cc2cccc(Cl)c2)CC1` [Example T97, 3-((3-chloro-4-(9-(3-chlorobenzyl)-6-(1-methylcyclopropoxy)-9H-purin-8-yl)phenyl)amino)propanoic acid]: the IC50 under setting [2] is 1260 nM.
